US20040175378A1, “Selected antibody compositions and methods for binding to aminophospholipids” (Board of Regents, The University of Texas System, priority 2002, published 2004)

Experiments:
[1] = progressive disease before treatment; cited from earlier work
bEnd.3 endothelial cells = assay: PS translocation and viability of bEnd.3 cells treated with H2O2; details: low levels of H2O2
HUVEC and HMVEC = assay: Induction of PS exposure on endothelial cells, FACS of 3G4 binding; format: cell-based, Human; details: 10 nM, 24 hrs
Protocol: FIG. 24A and FIG. 24B. Induction of PS exposure on endothelial cells by docetaxel. Human umbilical vein endothelial cells (HUVEC) and human microvessel endothelial cells (HMVEC) were treated with 10 nM of docetaxel for 24 hrs. […] The cells were then washed twice, FITC labeled goat anti-mouse IgG was added and the cells incubated for a further 30 mins. on ice. The cells were then washed and analyzed by FACS using a FACSCalibur cytometer (Becton-Dickinson, San Jose, Calif.) with CellQuest acquisition software.
The induction of PS exposure on endothelial cells by subclinical concentrations of docetaxel was examined in vitro by FACS analysis. Human umbilical vein endothelial cells (HUVEC) and human microvessel endothelial cells (HMVEC) were treated with 10 nM of docetaxel for 24 hrs and examined by FACS. […] Docetaxel incubations for 48 and 72 hrs were also conducted.

[2] = system: 3LL, Colo26 and MDA-MB-435 cells; assay: Induction of PS exposure on tumor cell lines, FACS of 3G4 binding; format: cell-based; details: 10 nM, 24 hrs, Colo26, MDA-MB-435
Protocol: FIG. 25A, FIG. 25B and FIG. 25C. Induction of PS exposure on tumor cell lines by docetaxel. Mouse lewis lung carcinoma 3LL, mouse colon carcinoma Colo26 and human breast cancer MDA-MB-435 cells were treated with 10 nM of docetaxel for 24 hrs. […] The cells were then washed twice, FITC labeled goat anti-mouse IgG was added and the cells incubated for a further 30 mins. on ice. The cells were then washed and analyzed by FACS using a FACSCalibur cytometer (Becton-Dickinson, San Jose, Calif.) with CellQuest acquisition software.
The in vitro induction of PS exposure by subclinical concentrations of docetaxel was also examined by FACS analysis using a panel of tumor cell lines. Mouse lewis lung carcinoma 3LL, mouse colon carcinoma Colo26 and human breast cancer MDA-MB-435 cells were treated with 10 nM of docetaxel for 24 hrs and examined by FACS. […] Docetaxel incubations for 48 and 72 hrs were also conducted.

ABAE cells = assay: PS exposure by 125I-annexin V binding; format: cell-based, bovine; details: 24 h
Protocol: (§1) All reagents were diluted in medium containing 10% serum and incubated with the cells at 37° C. for 24 h.
(§2) To study the effect of hypoxia, cells were seeded on 24 well plates and were incubated in a humidified normoxic atmosphere (21% O2, 5% CO2) for 48 h before being transferred to a humidified hypoxic atmosphere (1% O2, 5% CO2, 94% N2) in a sealed chamber (Billups Rothenberg Inc., Del Mar, Calif.). Cells were incubated in a hypoxic chamber for 24 h at 37° C. and were then returned to a normoxic environment for 4 h at 37° C. The cells were compared to a parallel culture from an identical passage, seeded on the same day and maintained entirely under normoxic conditions. In some studies, IL-1α (10 ng/ml) and TNFα (20 ng/ml) were added to the medium before transfer to the hypoxic chamber.
(§3) After treatment with the reagents described above, treated and control cells were incubated with 7.1 pmoles of ^125I-labeled annexin V (200 μl/well) in the binding buffer. After 2 h incubation at room temperature, cells were washed extensively and dissolved in 0.5 M of NaOH. The entire volume of 0.5 ml was transferred to plastic tubes and counted in a gamma counter. Non-specific binding was determined in the presence of 5 mM EDTA and was subtracted from experimental values. The results were expressed as net pmoles of cell-bound annexin V, normalized per 1×10^6 cells.
(§4) Maximal binding of annexin V was determined on cells simultaneously treated with actinomycin D and TNFα (50 ng/ml of each component). As has been previously reported, these agents cause apoptosis and PS exposure in 90-100% of endothelial cells (Lucas et al., 1998). Basal binding of ^125I-annexin V to untreated cells was determined in the presence of medium with 10% serum. The amount of ^125I-annexin V that bound to the untreated cultures was subtracted from that in the treated cultures. Exposure of PS was calculated according to the following formula: cell-bound annexin V (pmoles) under experimental conditions divided by maximal annexin V binding (pmoles), multiplied by 100. Each study was performed in duplicate and was performed at least three times. Mean values were calculated. The SE of the mean values from three separate experiments was less than 5%.

bEnd.3 cells = assay: PS exposure by 125I-annexin V binding; format: cell-based, Mouse; details: bEnd.3, 24 h
Protocol: as §1, §2, §3, §4

[3] = system: orthotopic MDA-MB-435 breast cancer; assay: 3G4 and ch3G4 tumor treatment; format: in vivo, mice; details: i.p. 800 μg day 15, 200 μg every two to three days, 400 μg day 35
Protocol: Tumors were also established using MD-MBA-435s cells and treated as described above. […] The treatment of large L540 tumors, MDA-MB-231 and MD-MBA-435s tumor cells for 60 days is shown in FIG. 8D, FIG. 8E and FIG. 8F. The antibodies caused tumor vascular injury, thrombosis and necrosis and retarded tumor growth, with no evidence of toxicity.
MD-MBA-435s lucerifase cells were obtained from Dr. Angels Sierra Jimenez, Barcelona, Spain and were grown in 10% DMEM. Mice were injected with tumor cells as described as above, and at 2 weeks post injection, the tumors were measured and the volume recorded. […] Treatment was initiated by IP injection (800 μg) at day 15 and continued with injections of 200 μg every two to three days until the final injection of 400 μg at day 35. Tumor volumes and mouse body weights were measured on injection days. Mice were sacrificed and perfused with saline for 12 minutes. The organs and tumor were removed, snap-frozen in liquid nitrogen and the tumor sectioned for immunohistochemistical analysis.

[4] = Binding of chimeric 3G4 to phospholipid-coated ELISA plates
Text: FIG. 21. […] Phospholipids (PS, PI, PE, PC, SM, CL, PG and PA) were adsorbed to plastic of microtiter plates.

[5] = system: tumor vascular endothelium of MDA-MB-435 tumors; assay: Localization of biotinylated ch3G4 in tumors; format: in vivo, mice; details: i.v., one hour
Protocol: Localization of ch3G4 was examined in MDA-MB-435 human breast cancer cells growing in mice. Mice were injected intravenously with biotinylated ch3G4 or control IgG of irrelevant specificity. One hour later, the mice were exsanguinated, and their tumors were removed and frozen sections were cut. Biotinylated reagents were first incubated with streptavidin-Cy3 conjugate, washed in PBS, then incubated with MECA 32 antibody followed by FITC-tagged secondary antibody. Single images, taken with appropriate filters for Cy3 (red) and FITC (green) fluorescence respectively, were captured by digital camera and transferred to a computer.

mCMV RVG102 = assay: Survival of mCMV-infected mice; format: in vivo, Balb/C mice; details: 1 mg/mouse i.p. day 1, 0.5 mg/mouse every four days until day 26; past 90 days
[6] = system: Vaccinia virus-infected U937 cells; format: cell-based; details: day 2 after infection, m.o.i. 2

In the case of `NC(=O)c1nnn(Cc2cc(Cl)c(C(=O)c3ccc(Cl)cc3)c(Cl)c2)c1N` [CAI, carboxyamidotriazole], the “cancer patients with disease stabilization” value [1] is given as 49%.

With `OO` [Hydrogen peroxide, hydrogen peroxide] the cell viability (bEnd.3 endothelial cells) was 95%.

With `CC(=O)O[C@@]12CO[C@@H]1C[C@H](O)[C@@]1(C)C(=O)[C@H](O)C3=C(C)[C@@H](OC(=O)[C@H](O)[C@@H](NC(=O)OC(C)(C)C)c4ccccc4)C[C@@](O)([C@@H](OC(=O)c4ccccc4)[C@H]21)C3(C)C` [docetaxel] the “3G4 binding as compared to untreated cells” value (HUVEC and HMVEC) was “significant increase in 3G4 binding” and the “3G4 binding as compared with untreated cells” value [2] was “significant increase in 3G4 binding”.

With FGF-2: human fibroblast growth factor-2 the “^125I-Annexin V (% of Max binding)” value (ABAE cells; 20 ng/ml) was 0% and the “^125I-Annexin V (% of Max binding)” value (bEnd.3 cells; 20 ng/ml) was 0%.

With IL-6: interleukin-6 the “^125I-Annexin V (% of Max binding)” value (ABAE cells; 20 ng/ml) was 0% and the “^125I-Annexin V (% of Max binding)” value (bEnd.3 cells; 20 ng/ml) was 0%.

With IL-8: interleukin-8 the “^125I-Annexin V (% of Max binding)” value (ABAE cells; 20 ng/ml) was 0% and the “^125I-Annexin V (% of Max binding)” value (bEnd.3 cells; 20 ng/ml) was 0%.

For IL-10: interleukin-10, the “^125I-Annexin V (% of Max binding)” value (ABAE cells; 20 ng/ml) was 0% and the “^125I-Annexin V (% of Max binding)” value (bEnd.3 cells; 20 ng/ml) was 0%.

In the case of Interferon, the “^125I-Annexin V (% of Max binding)” value (ABAE cells; 40 ng/ml) is reported as 8.6% and the “^125I-Annexin V (% of Max binding)” value (bEnd.3 cells; 40 ng/ml) is reported as 2.8%.

With “Scatter factor: recombinant hepatocyte growth factor” the “^125I-Annexin V (% of Max binding)” value (ABAE cells; 40 ng/ml) was 0% and the “^125I-Annexin V (% of Max binding)” value (bEnd.3 cells; 40 ng/ml) was 0%.

For TGF β1: growth factor, the “^125I-Annexin V (% of Max binding)” value (ABAE cells; 20 ng/ml) was 0% and the “^125I-Annexin V (% of Max binding)” value (bEnd.3 cells; 20 ng/ml) was 0%.

With TNFα the “^125I-Annexin V (% of Max binding)” value (ABAE cells; 20 ng/ml) was 7.4% and the “^125I-Annexin V (% of Max binding)” value (bEnd.3 cells; 20 ng/ml) was 13.7%.

With Thrombin the “^125I-Annexin V (% of Max binding)” value (ABAE cells; 50 nM) was 8.8% and the “^125I-Annexin V (% of Max binding)” value (bEnd.3 cells; 50 nM) was 17.4%.

In the case of VEGF, the “^125I-Annexin V (% of Max binding)” value (ABAE cells; 20 ng/ml) is reported as 0% and the “^125I-Annexin V (% of Max binding)” value (bEnd.3 cells; 20 ng/ml) is reported as 0%.

In the case of “ch3G4: human-mouse chimeric 3G4: murine variable regions on human γ1 and κ constant regions, expressed in CHO cells”, the “tumor growth as opposed to control” value [3] is reported as “effectively retarded tumor growth”, the “binding to phospholipid-coated ELISA plates” value [4] is reported as “bound at least as did well as the murine 3G4” and the “localization to tumor vascular endothelium” value [5] is reported as “binds to the tumor vascular endothelium”. For the same molecule, the survival (mCMV RVG102) was 80% and the “binding to virus-infected vs uninfected cells (FACS)” value [6] was “significant shift”.

B1: IL-1α: recombinant murine interleukin-1 alpha (protein, UniProt P01582 115-270, looked up)
Interleukin-1 alpha: SAPYTYQSDLRYKLMKLVRQKFVMNDSLNQTIYQDVDKHYLSTTWLNDLQQEVKFDMYAYSSGGDDSKYPVTLKISDSQLFVSAQGEDQPVLLKELPETPKLITGSETDLIFFWKSINSKNYFTSAAYPELFIATKEQSRVHLARGLPSMTDFQIS
With B1 the “^125I-Annexin V (% of Max binding)” value (ABAE cells; 10 ng/ml) was 6.4% and the “^125I-Annexin V (% of Max binding)” value (bEnd.3 cells; 10 ng/ml) was 7.5%.

B2: IL-1β: recombinant murine interleukin-1 beta (protein, UniProt P10749 118-269, looked up)
Interleukin-1 beta: VPIRQLHYRLRDEQQKSLVLSDPYELKALHLNGQNINQQVIFSMSFVQGEPSNDKIPVALGLKGKNLYLSCVMKDGTPTLQLESVDPKQYPKKKMEKRFVFNKIEVKSKVEFESAEFPNWYISTSQAEHKPVFLGNNSGQDIIDFTMESVSS
For B2, the “^125I-Annexin V (% of Max binding)” value (ABAE cells; 10 ng/ml) was 5.8% and the “^125I-Annexin V (% of Max binding)” value (bEnd.3 cells; 10 ng/ml) was 5.5%.
